The results in this text go back to patent US8735406B2, “8-oxodihydropurine derivative” (Dainippon Sumitomo Pharma Co., Ltd., priority 2009, dated 2014).

The target of this experiment is T1, FAAH (Rattus norvegicus, UniProt P97612).
T1 construct: Preparation of Rat Brain Membranes Preparations (FAAH Enzyme Solution); from tissue; host or cells: rat cerebrum (brain membrane preparation)
T1 sequence (P97612 1-579): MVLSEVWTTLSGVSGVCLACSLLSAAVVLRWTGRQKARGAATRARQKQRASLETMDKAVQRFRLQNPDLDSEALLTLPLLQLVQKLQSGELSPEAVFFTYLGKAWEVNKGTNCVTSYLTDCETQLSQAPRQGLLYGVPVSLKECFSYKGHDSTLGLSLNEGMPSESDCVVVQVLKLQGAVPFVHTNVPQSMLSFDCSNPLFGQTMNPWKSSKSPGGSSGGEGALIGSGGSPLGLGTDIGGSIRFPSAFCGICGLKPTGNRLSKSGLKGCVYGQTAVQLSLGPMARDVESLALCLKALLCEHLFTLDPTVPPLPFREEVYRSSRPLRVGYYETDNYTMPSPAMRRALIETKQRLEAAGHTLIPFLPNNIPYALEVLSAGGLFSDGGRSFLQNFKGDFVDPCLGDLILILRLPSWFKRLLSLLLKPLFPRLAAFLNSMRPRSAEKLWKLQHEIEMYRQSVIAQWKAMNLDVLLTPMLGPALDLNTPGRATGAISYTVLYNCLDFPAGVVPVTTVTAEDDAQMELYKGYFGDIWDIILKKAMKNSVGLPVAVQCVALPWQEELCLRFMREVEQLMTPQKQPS
As to the kind of experiment: Determination of FAAH inhibitory activity in rat (rat brain membrane preparations, [3H]-anandamide hydrolysis). Type of experiment: biochemical. As to conditions: rat brain membrane preparations; for inhibition at 0.1 µM: 100 nM test substance, read-out: FAAH Inhibition, Inhibition Rate at 100 nM; for IC50: test substance 0.1 nM to 1 μM, read-out: FAAH Inhibition IC50. The essentials:
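Rat cerebrum membranes (100 μg/mL protein) preincubated 10 min at 37 °C with compound (1% DMSO) in pH 7.6 Tris buffer with 1.5% BSA. Substrate 2 nM [3H]-anandamide plus 2 μM anandamide added for 10 min at 37 °C. [3H]-ethanolamine in the aqueous phase after chloroform/methanol extraction was scintillation counted; IC50 over 0.1 nM–1 μM.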

Regarding `CCN(C)C(=O)n1c(=O)n(C)c2nc(CC(C)(C)C)ncc21` [Example 160, 2-(2,2-Dimethylpropyl)-N-ethyl-N,9-dimethyl-8-oxo-8,9-dihydro-7H-purine-7-carboxamide], the inhibition at 0.1 µM worked out at 98% and the half-inhibitory concentration (IC50) stood at 14 nM.

For `CCCCc1ncc2c(n1)n(C)c(=O)n2C(=O)N(C)CC` [Example 161, 2-Butyl-N-ethyl-N,9-dimethyl-8-oxo-8,9-dihydro-7H-purine-7-carboxamide], the inhibition at 0.1 µM was 93% and the 50% inhibitory concentration (IC50) worked out at 19 nM.

`CCN(C)C(=O)n1c(=O)n(C)c2nc(C3CCCCC3)ncc21` [Example 162, 2-Cyclohexyl-N-ethyl-N,9-dimethyl-8-oxo-8,9-dihydro-7H-purine-7-carboxamide]: the inhibition at 0.1 µM turned out to be 72% and the IC50 stood at 38 nM.

Turning to `CCN(C)C(=O)n1c(=O)n(C)c2nc(C)ncc21` [Example 163], the inhibition at 0.1 µM is 27% and the IC50 was over 100 nM.

In the case of `Cn1c(=O)n(C(=O)N2CCC2)c2nc(CCc3cccc(F)c3)ncc21` [Example 164, 9-(Azetidin-1-ylcarbonyl)-2-[2-(3-fluorophenyl)ethyl]-7-methyl-7,9-dihydro-8H-purine-8-one], the inhibition at 0.1 µM is 98% and the half-inhibitory concentration (IC50) was found to be 5 nM.

For `CN(C)C(=O)n1c(=O)n(C)c2cnc(CCc3cccc(F)c3)nc21` [Example 165, 2-[2-(3-Fluorophenyl)ethyl]-N,N,7-trimethyl-8-oxo-7,8-dihydro-9H-purine-9-carboxamide], the inhibition at 0.1 µM turned out to be 103% and the IC50 was found to be 4 nM.

With `Cn1c(=O)n(C(=O)N2CCCC2)c2cnc(-c3ccccc3F)nc21` [Example 166, 2-(2-fluorophenyl)-9-methyl-7-(pyrrolidin-1-ylcarbonyl)-7,9-dihydro-8H-purine-8-one], the inhibition at 0.1 µM turned out to be 99% and the half-inhibitory concentration (IC50) came to 24 nM.

Consider `Cn1c(=O)n(C(=O)N2CCCC2)c2cnc(-c3cccc(F)c3)nc21` [Example 167, 2-(3-Fluorophenyl)-9-methyl-7-(pyrrolidin-1-ylcarbonyl)-7,9-dihydro-8H-purine-8-one], for which the inhibition at 0.1 µM was determined as 101% and the IC50 was 6 nM.

`Cn1c(=O)n(C(=O)N2CCCC2)c2cnc(-c3ccc(F)cc3)nc21` [Example 168, 2-(4-Fluorophenyl)-9-methyl-7-(pyrrolidin-1-ylcarbonyl)-7,9-dihydro-8H-purine-8-one]: the inhibition at 0.1 µM was determined as 100% and the half-maximal inhibitory concentration (IC50) was found to be 6 nM.

In the case of `Cc1cccc(-c2ncc3c(n2)n(C)c(=O)n3C(=O)N2CCCC2)c1` [Example 170, 9-Methyl-2-(3-methylphenyl)-7-(pyrrolidin-1-ylcarbonyl)-7,9-dihydro-8H-purine-8-one], the inhibition at 0.1 µM is 98% and the IC50 was 7 nM.

`Cc1ccc(-c2ncc3c(n2)n(C)c(=O)n3C(=O)N2CCCC2)cc1` [Example 171, 9-Methyl-2-(4-methylphenyl)-7-(pyrrolidin-1-ylcarbonyl)-7,9-dihydro-8H-purine-8-one]: the inhibition at 0.1 µM came out at 102% and the concentration for half-maximal inhibition (IC50) was found to be 19 nM.

For the compound `COc1cccc(-c2ncc3c(n2)n(C)c(=O)n3C(=O)N2CCCC2)c1` [Example 173, 2-(3-Methoxyphenyl)-9-methyl-7-(pyrrolidin-1-ylcarbonyl)-7,9-dihydro-8H-purine-8-one], the inhibition at 0.1 µM stood at 101% and the IC50 is 7 nM.

On to `CN(C)c1ccc(-c2ncc3c(n2)n(C)c(=O)n3C(=O)N2CCCC2)cc1` [Example 182, 2-[4-(Dimethylamino)phenyl]-9-methyl-7-(pyrrolidin-1-ylcarbonyl)-7,9-dihydro-8H-purine-8-one], for which the inhibition at 0.1 µM worked out at 100% and the IC50 was determined as 28 nM.

Regarding `CSc1ccc(-c2ncc3c(n2)n(C)c(=O)n3C(=O)N2CCCC2)cc1` [Example 183, 9-Methyl-2-[4-(methylsulfanyl)phenyl]-7-(pyrrolidin-1-ylcarbonyl)-7,9-dihydro-8H-purine-8-one], the inhibition at 0.1 µM was found to be 101% and the IC50 was 3 nM.

For `Cn1c(=O)n(C(=O)N2CCCC2)c2cnc(-c3cccc(F)c3F)nc21` [Example 187, 2-(2,3-Difluorophenyl)-9-methyl-7-(pyrrolidin-1-ylcarbonyl)-7,9-dihydro-8H-purine-8-one], the inhibition at 0.1 µM came to 100% and the IC50 is 7 nM.

For the compound `Cn1c(=O)n(C(=O)N2CCCC2)c2cnc(-c3cc(F)ccc3F)nc21` [Example 189, 2-(2,5-Difluorophenyl)-9-methyl-7-(pyrrolidin-1-ylcarbonyl)-7,9-dihydro-8H-purine-8-one], the inhibition at 0.1 µM worked out at 100% and the IC50 worked out at 7 nM.

For `COc1cccc(-c2ncc3c(n2)n(C)c(=O)n3C(=O)N2CCCC2)c1F` [Example 196, 2-(2-Fluoro-3-methoxyphenyl)-9-methyl-7-(pyrrolidin-1-ylcarbonyl)-7,9-dihydro-8H-purine-8-one], the inhibition at 0.1 µM came to 101% and the concentration for half-maximal inhibition (IC50) was 23 nM.

Take `COc1ccc(F)c(-c2ncc3c(n2)n(C)c(=O)n3C(=O)N2CCCC2)c1` [Example 200, 2-(2-Fluoro-5-methoxyphenyl)-9-methyl-7-(pyrrolidin-1-ylcarbonyl)-7,9-dihydro-8H-purine-8-one]: the inhibition at 0.1 µM turned out to be 97% and the IC50 was determined as 30 nM.

On to `Cc1cc(F)cc(-c2ncc3c(n2)n(C)c(=O)n3C(=O)N2CCCC2)c1` [Example 201, 2-(3-Fluoro-5-methylphenyl)-9-methyl-7-(pyrrolidin-1-ylcarbonyl)-7,9-dihydro-8H-purine-8-one], for which the inhibition at 0.1 µM amounted to 99% and the IC50 turned out to be 26 nM.

Regarding `Cn1c(=O)n(C(=O)N2CCCC2)c2cnc(-c3cccc(OCc4ccccc4)c3)nc21` [Example 202, 2-(3-benzyloxyphenyl)-9-methyl-7-(pyrrolidin-1-ylcarbonyl)-7,9-dihydro-8H-purine-8-one], the inhibition at 0.1 µM is 53% and the IC50 was determined as 95 nM.

On to `Cn1c(=O)n(C(=O)N2CCCC2)c2cnc(-c3cccc([N+](=O)[O-])c3)nc21` [Example 203, 2-(3-nitrophenyl)-9-methyl-7-(pyrrolidin-1-ylcarbonyl)-7,9-dihydro-8H-purine-8-one], for which the inhibition at 0.1 µM came to 98% and the half-inhibitory concentration (IC50) was found to be 24 nM.

On to `Cn1c(=O)n(C(=O)N2CCCC2)c2cnc(-c3cccnc3)nc21` [Example 205, 9-Methyl-2-(pyridin-3-yl)-7-(pyrrolidin-1-ylcarbonyl)-7,9-dihydro-8H-purine-8-one], for which the inhibition at 0.1 µM amounted to 98% and the IC50 stood at 5 nM.

Consider `COc1ccc(-c2ncc3c(n2)n(C)c(=O)n3C(=O)N2CCCC2)cn1` [Example 206, 2-(6-Methoxypyridin-3-yl)-9-methyl-7-(pyrrolidin-1-ylcarbonyl)-7,9-dihydro-8H-purine-8-one], for which the inhibition at 0.1 µM worked out at 98% and the 50% inhibitory concentration (IC50) turned out to be 4 nM.

As to `Cn1c(=O)n(C(=O)N2CCCC2)c2cnc(-c3ccc(F)nc3)nc21` [Example 207, 2-(6-Fluoropyridine-3-yl)-9-methyl-7-(pyrrolidin-1-ylcarbonyl)-7,9-dihydro-8H-purine-8-one], the inhibition at 0.1 µM turned out to be 99% and the IC50 was determined as 6 nM.

By inhibition is commonly meant the change of the read-out against control, counted positive when it falls. Broadly, the IC50 is the concentration that gives 50% inhibition.
